# Patent US8846747B2, “Compounds and methods for altering lifespan of eukaryotic organisms” (University of Rochester, priority 2009, dated 2014)
# Key:
# [1] = system: strain FY839 (healthy wild-type); experiment: Toxicity of compounds by yeast growth assay; type: cell-based; details: FY839, inset in FIG. 2
# Description: The toxicity of compounds C1-1, C1-2, C1-3, C1-4, and C1-5 in yeast was assessed by determining their effects on growth of a wild-type yeast strain. FIG. 2 is a graphical representation of the toxicity data. The yeast used was strain FY839 (healthy wild-type) growing in SCD. At 12 hours all were in log phase. […] This concentration is many-fold higher than the effective concentrations of these compounds as assessed by DeaD lifespan assays.
# [2] = system: mice exposed to cigarette smoke; experiment: cigarette smoke-induced inflammation of mouse lungs; type: in vivo; details: ip 5 mg/kg
# Description: FIG. 4. […] To obtain the data summarized in FIG. 4, Mice were exposed to cigarette smoke or filtered air for 3 consecutive days. They were treated ip with vehicle or Cob 1-2 (5 mg/kg) in DMSO: 1 group was treated daily during smoke exposure period and 1 group was pre-treated with 2 doses per week during the week prior to the smoke exposure and daily during the smoke exposure. On day 4, mice were sacrificed. Their lungs were washed and BAL fluid was stained for Europhiles count. The lungs were homogenized for ELISA quantifying MCP-1 levels.
# In vivo prevention of cigarette smoke-induced inflammation of mouse lungs: Exposing mice to cigarette smoke induces an acute inflammatory response in the lungs. Cigarette smoke-induced inflammation in the lungs was assessed by quantifying the ratio of macrophages to Europhiles in bronchoalveolar lavage fluid (BALF), and levels of pro-inflammatory markers such as MCP-1 in lung tissue (Yao H, Edirisinghe I, Rajendrasozhan S, Yang S R, Caito S, Adenuga D, Rahman I. Cigarette smoke-mediated inflammatory and oxidative responses are strain-dependent in mice. Am. J. Physiol Lung Cell Mol Physiol 2008; 294: L1174-L1186.).
# [3] = system: DeaD strain BB579; experiment: yeast Death of Daughters (DeaD) lifespan assay, reversal of nicotinamide (NAM) lifespan shortening; type: cell-based, S. cerevisiae (yeast); details: Saccharomyces cerevisiae, BB579, read-out: C50 (concentration that yields half the maximal activity) by DeaD assay
# Description: The C50 (50% maximal activity) is a measure of the efficacy of a compound as a LAC and is determined by quantifying the dose-response curve for each LAC by DeaD assay in the presence and absence of nicotinamide. The C50 is the concentration of LAC that yields half the maximal activity. Dose response curves will generally peak and then decline. The decline is most likely due to toxicity at higher LAC concentrations. The C50 is determined relative to the maximal lifespan extension (the peak value). C50 values are provided for C1-5.
# The compounds listed in Table 1 of Example 3 were assessed for their anti-aging activities using the yeast Death of Daughters (DeaD) explicative lifespan assay. Specifically, the compounds were assessed for their capacity to reverse the lifespan shortening effect of exogenous nicotinamide (NAM), which is a known inhibitor of the anti-aging protein Sir2p (Anderson et al., 2003; Bitterman et al., 2002). These compounds were compared to the activities of known cluster 1 compounds, S3-5, and #3-11.
# “Activity” here is defined herein as the fold improvement in DeaD lifespan in the presence of 0.75 mM NAM relative to lifespan in the absence of cluster 1 compounds, over a range of compound concentrations between 0.5 nm-1 μm. This “activity” value is a means of assessing the usefulness of a compound as a LAC. The assays were performed as follows. DeaD strain BB579 was grown overnight in a permissive (galactose-containing) medium to mid-log phase, and then diluted to an OD600 of 0.0001 in restrictive (glucose-containing) medium with 0.75 mM NAM and the compound to be tested. Cells were then incubated at 30° C. for 3 days, with shaking and OD600 measurement every 20 minutes. The OD600 reading after 60 hours in restrictive medium, normalized to the same measurement for the “no drug” control, was used as the number for comparison.
# Five of the compounds with higher activity than S3-5 were selected for further study and were designated C1-1, C1-2, C1-3, C1-4, and C1-5 (see Table 2, Example 4). All data in FIGS. 1A(1)-(6) are from media containing 0.75 mM NAM. Note the different ranges of the X axes in FIGS. 1A(1)-(6)—very different C50 values for the compounds of the present invention compared the known C1 cluster compounds. […] All five had C50 values below 50 nM, while the C50 value for S3-5 was about 650 nM, and the C50 for S1-9 was about 350 nM.
# [4] = system: TNF-α-treated mice; experiment: TNF-α-induced vascular inflammation in mice (leukocyte rolling in mesenteric vessels); type: in vivo, mouse; details: ip 6 mg/kg once (1 hour) or twice (24 hours and 1 hour) prior to TNF-α; compared to TNF-α-treated control mice; FIG. 5
# Description: FIG. 5. Graphical results showing in vivo reduction of TNF-α-induced vascular inflammation in mice. To obtain the data summarized in FIG. 5, mice (3 each group) were injected with vehicle or Cob 1-2 (ip, 6 mg/kg in DMSO). Two treatments were used: i) 1 dose an hour before TNFa and, ii) 2 doses (24 hrs and 1 hr before TNFa ). TNFa was administered ip (20 ug/kg). 3 hours post TNFa administration, mice were anesthetized, their mesentery was exposed and placed on an inverted fluorescent microscope stage. Lymphocyte velocities within veins was determined by analyzing video recordings
# In vivo reduction of TNF-α-induced vascular inflammation in mice: The affects of drugs on vascular inflammation can be assessed by quantifying the rates of leukocytes rolling in mouse mesenteric vessels following intraperitoneal administration of TNF-α (Craig N. Morrell, Kenji Matsushita, and Charles J. Lowenstein. A Novel Inhibitor of N-Ethylmaleimide-Sensitive Factor Decreases Leukocyte Trafficking and Peritonitis. JPET 2005; 314:155-161). Vascular inflammation was induced in two groups of mice that were treated with C1-2 either once (1 hour) or twice (24 hours and 1 hour) prior to TNF-α administration.
# [5] = system: RAW 264.7 cells; experiment: LPS-induced TNF-α secretion from RAW 264.7 cells (ELISA); type: cell-based, murine; details: compound 1 micromolar, LPS 10 ng/ml for 6 hrs; FIG. 3
# Description: FIG. 3. […] To obtain the data summarized in FIG. 3, RAW […] cells were incubated with Scrims (compounds of present invention) (1 uM), PI3K inhibitor positive control (LY-294002; 25 uM) or vehicle (DMSO) for 1 hr. LPS (10 ng/ml) was added to the medium. 6 hrs post LPS administration medium was collected and analyzed for TNFa levels using ELISA.
# In vitro anti-inflammatory activity in RAW 264.7 cells (murine leukaemic monocyte macrophage cell line): Lipopolysaccharide (LPS)-induced secretion of cytokines from RAW cells is a recognized in vitro assay for anti-inflammatory drugs. The anti-inflammatory activities of C1-1, C1-2, C1-3, C1-4, and C1-5 in the RAW cell model. RAW cells exposed to LPS were incubated with each of the five molecules at 1 micromolar concentration. The PIK3 inhibitor LY-294002 was used at 25 micromolar as a positive control. […] LPS was administered at 10 ng/ml for 6-hrs. TNF-α levels were quantified by ELISA assay. Results are presented as % of control with standard deviations of three replicates.
structure (smiles),measurement,setting,value
"CCC(=O)C1C(=O)CC(c2ccc(F)cc2)CC1=O (stereo not drawn) [SRI# 22790, 1,3-cyclohexanedione, 2-propanoyl-5-[4-fluorophenyl]-]",toxic effects on growth at concentrations below 1 μM,[1],little or no toxic effects on growth
same,total Europhiles count in BAL fluid,"[2]; 3 days smoke exposure, FIG. 4A",lowered total Europhiles count to near background levels
same,MCP-1 levels in lungs,"[2]; lung homogenate ELISA, FIG. 4B",decreased in a statistically significant fashion
same,EC50,[3],< 50 nM
same,leukocytes velocity in mesenteric vessels,[4],significantly increased leukocytes velocity
same,reduction of secreted TNF-α relative to vehicle treated cells,[5],exhibited anti-inflammatory activity
